# In patent publication US20130040882A1, “USE OF FIBROBLAST GROWTH FACTOR FRAGMENTS” (NOVARTIS AG, priority 2003, published 2013):
# Where “and” joins values, the source holds several entries; their conditions need not be identical. Equal values may be shown once. Entries after “also recorded” stand apart in the source; their conditions may differ.
# B1: FGF23CTP: unique 75-mer COOH-terminal peptide of FGF-23, SEQ ID NO: 2 (peptide, listed as Homo sapiens)
# chain: HTRSAEDDSERDPLNVLKPRARMTPAPASCSQELPSAEDNSPMASDPLGVVRGGRVNTHAGGTGPEGCRPFAKFI
# Experiments:
# somatostatin receptors = conditions: cited from earlier work
# [1] = test system: gene expression in organs; experiment: Blind monkey trial of three peptides: gene expression profiling of organs on Affymetrix U95 chips; assay type: in vivo, cynomolgus monkeys; conditions: 100 μg/animal/day sc, two weeks; listed as Peptide 1
# bone tissue = experiment: Salmon calcitonin/PTS893 monkey study: histomorphometry of bone tissue (tibia, vertebra); assay type: in vivo, cynomolgus monkeys (Macaca fascicularis)
# Procedure: Bone sections were stained for osteonectin, osteopontin and osteocalcin and were evaluated histopathologically. Histomorphometry of the bone tissue was performed regarding parameters for bone resorption and synthesis (osteoid formation).
# Histomorphometry of bone tissue was performed to determine parameters related to bone resorption and bone synthesis (osteoid formation).
# [2] = Salmon calcitonin/PTS893 monkey study: urinalysis; conditions: urine
# [3] = test system: Insulin-Like Growth Factor Binding Protein 2; experiment: Serum determination of insulin-like growth factor binding protein 2 in FGF23CTP-treated monkeys; assay type: in vivo, cynomolgus monkey
# Procedure: At the end of the treatment period samples from all organs are subjected to snap freezing at necropsy and are analyzed with GeneChip® expression profiling.
# Serum levels were determined for IGFB2 and found to be decreased, in agreement with the decreased transcript levels in several organs, including the liver.
# [4] = tibia, group mean (males and females)
# [5] = tibia, individual animals (males and females)
# [6] = vertebra, group mean (males and females)
# [7] = vertebra, individual animals (males and females)
# [8] = female monkeys, day 13 of dosing
# [9] = female monkeys, day −7 relative to start of dosing
# [10] = female monkeys, day −8 relative to start of dosing
# [11] = male monkeys, day −5 relative to start of dosing
# [12] = male monkeys, day −6 relative to start of dosing
molecule,measurement,setting,value
cyclo[4-(NH2—C2H4—NH—CO—O)Pro-Phg-DTrp-Lys-Tyr(4-Bzl)-Phe] [SOM230],Binding to somatostatin receptors,somatostatin receptors,binds to all somatostatin receptors except SSTR4
same,Conclusions of the in vivo Profiling by the Data Mining Team: Function/Pathway,[1],Anti-growth activity; also recorded: GI tract/pancreatic; also recorded: Immunosuppression
same,Findings by the Data Mining Team: Adrenals (gene with direction),[1],IGF2−; also recorded: somatostatin−; also recorded: insulin receptor+; also recorded: urocortin+
same,Findings by the Data Mining Team: Bone marrow (gene with direction),[1],VIP− and peptide YY− and cyclin− and GAPDH−
same,Findings by the Data Mining Team: Kidney (gene with direction),[1],Solute carrier protein 9++; also recorded: urocortin+; also recorded: IGF2−; also recorded: beta 2−; also recorded: THRα+
same,Findings by the Data Mining Team: Liver (gene with direction),[1],IGF2− and NMDA receptor+ and glutamate dehydrogenase+ and VIP and insulin− induced protein1 and STR5
same,Findings by the Data Mining Team: Pituitary (gene with direction),[1],IGFR1− and GH1/2− and CSH(L)− and TSH− and CHRH2− and synthase++ and Immunoglobulin−−
same,Findings by the Data Mining Team: Spleen (gene with direction),[1],IGF2− and IGBP6− and insulin receptor− and urocortin+ and Ig− and ribosomal protein −− and Nk cells+
same,Findings by the Data Mining Team: Stomach (gene with direction),[1],Gastrin+; also recorded: hypocretin+; also recorded: glutamate receptor+; also recorded: GABAB−
same,Findings by the Data Mining Team: Thymus (gene with direction),[1],"IGFBP1+ and MHC classII− and Ig− and FKBP12− and CD4− and defensin alpha1+,"
same,Findings by the Data Mining Team: Thyroid (gene with direction),[1],"NPY− and cyclins−− and ATPase calcium channel+ and somatostatin receptor 4−,"
"Leu8, Asp10, Lysll, A1a16, G1n18, Thr33, A1a34 human PTH 1-34 [PTS893, Leu8, Asp10, Lysll, A1a16, G1n18, Thr33, A1a34 human PTH 1-34 [hPTH(1-34)]]",Increase in osteoid surface,bone tissue; tibia,49%
same,Increase in osteoid volume,bone tissue; tibia,37%
same,Increase in the osteoblast surface,bone tissue; tibia,40%
same,Increase of cortical porosity,bone tissue; tibia (T),54%
same,Reduction of cortical thickness,bone tissue; tibia (T),18%
same,BT/TV (trabecular bone volume),bone tissue; [4],21.72%
same,Ct Por (cortical porosity),bone tissue; [4],2.90%
same,Ct Th (cortical thickness),bone tissue; [4],951.48 μm
same,ES/BS (eroded surface),bone tissue; [4],4.11%
same,OS/BS (osteoid surface),bone tissue; [4],49.25%
same,OV/BV (osteoid volume),bone tissue; [4],9.74%
same,Obs/BS (osteoblast surface),bone tissue; [4],20.28%
same,Tb N (trabecular number),bone tissue; [4],1.85 mm^−1
same,Tb Th (trabecular thickness),bone tissue; [4],117.25 μm
same,BT/TV (trabecular bone volume),bone tissue; [5],19.69% and 16.65% and 25.74% and 24.78%
same,Ct Por (cortical porosity),bone tissue; [5],2.76% and 2.94% (2×) and 2.95%
same,Ct Th (cortical thickness),bone tissue; [5],1022.62 μm and 893.43 μm and 950.33 μm and 939.53 μm
same,ES/BS (eroded surface),bone tissue; [5],4.62% and 4.76% and 4.21% and 2.85%
same,OS/BS (osteoid surface),bone tissue; [5],54.84% and 43.57% and 43.63% and 54.97%
same,OV/BV (osteoid volume),bone tissue; [5],11.24% and 9.61% and 8.14% and 9.95%
same,Obs/BS (osteoblast surface),bone tissue; [5],16.16% and 21.25% and 18.46% and 25.25%
same,Tb N (trabecular number),bone tissue; [5],1.52 mm^−1 and 1.79 mm^−1 and 2.13 mm^−1 and 1.97 mm^−1
same,Tb Th (trabecular thickness),bone tissue; [5],129.22 μm and 93.20 μm and 120.52 μm and 126.07 μm
same,Increase in osteoid surface,bone tissue; vertebra,37%
same,Increase in osteoid volume,bone tissue; vertebra,213%
same,Increase in the osteoblast surface,bone tissue; vertebra,24%
same,Reduction of cortical thickness and increase of cortical porosity,bone tissue; vertebra (V),not in vertebra
same,BT/TV (trabecular bone volume),bone tissue; [6],20.95%
same,Ct Por (cortical porosity),bone tissue; [6],1.07%
same,Ct Th (cortical thickness),bone tissue; [6],675.50 μm
same,ES/BS (eroded surface),bone tissue; [6],4.53%
same,OS/BS (osteoid surface),bone tissue; [6],25.36%
same,OV/BV (osteoid volume),bone tissue; [6],4.45%
same,Obs/BS (osteoblast surface),bone tissue; [6],9.56%
same,Tb N (trabecular number),bone tissue; [6],1.68 mm^−1
same,Tb Th (trabecular thickness),bone tissue; [6],123.43 μm
same,BT/TV (trabecular bone volume),bone tissue; [7],15.15% and 20.23% and 23.56% and 24.86%
same,Ct Por (cortical porosity),bone tissue; [7],1.49% and 1.45% and 0.41% and 0.92%
same,Ct Th (cortical thickness),bone tissue; [7],707.43 μm and 629.35 μm and 740.87 μm and 624.35 μm
same,ES/BS (eroded surface),bone tissue; [7],9.31% and 2.30% and 2.55% and 3.96%
same,OS/BS (osteoid surface),bone tissue; [7],18.84% and 41.28% and 23.65% and 17.66%
same,OV/BV (osteoid volume),bone tissue; [7],3.24% and 8.42% and 3.49% and 2.66%
same,Obs/BS (osteoblast surface),bone tissue; [7],10.36% and 9.07% and 10.47% and 8.33%
same,Tb N (trabecular number),bone tissue; [7],1.44 mm^−1 and 1.70 mm^−1 and 1.75 mm^−1 and 1.84 mm^−1
same,Tb Th (trabecular thickness),bone tissue; [7],105.46 μm and 118.79 μm and 134.66 μm and 134.82 μm
same,CREAT,[2]; [8],5620 µmol/L and 8060 µmol/L
same,Ca2+,[2]; [8],20.05 mmol/L and 12.35 mmol/L
same,Cl−,[2]; [8],101 mmol/L and 133 mmol/L
same,D-PYR,[2]; [8],1356 nmol/L and 2036 nmol/L
same,LDH,[2]; [8],10.0 IU/L and 9.0 IU/L
same,Mg2+,[2]; [8],6.90 mmol/L and 5.90 mmol/L
same,NTx/Crea,[2]; [8],447 nME/mM and 705 nME/mM
same,Pyr/Crea,[2]; [8],241 nM/mM and 253 nM/mM
same,VOLUME,[2]; [8],52 mL and 42 mL
same,NTx/Crea,[2]; [9],576 nME/mM and 634 nME/mM
same,Pyr/Crea,[2]; [9],163 nM/mM and 181 nM/mM
same,CREAT,[2]; [10],19160 µmol/L and 14060 µmol/L
same,Ca2+,[2]; [10],11.50 mmol/L and 6.60 mmol/L
same,K+,[2]; [10],302 mmol/L and 164 mmol/L
same,LDH,[2]; [10],11.0 IU/L and 18.0 IU/L
same,Mg2+,[2]; [10],7.35 mmol/L and 4.00 mmol/L
same,Na+,[2]; [10],145 mmol/L and 118 mmol/L
same,Ca2+,"[2]; male monkeys, day 13 of dosing",7.55 mmol/L and 13.10 mmol/L
same,I.PHOS,"[2]; male monkeys, day 13 of dosing",0.10 mmol/L and 0.17 mmol/L
same,K+,"[2]; male monkeys, day 13 of dosing",107 mmol/L and 69 mmol/L
same,LDH,"[2]; male monkeys, day 13 of dosing",14.0 IU/L and 19.0 IU/L
same,Mg2+,"[2]; male monkeys, day 13 of dosing",8.70 mmol/L and 5.25 mmol/L
same,NAG,"[2]; male monkeys, day 13 of dosing",2.9 IU/l and 2.6 IU/l
same,NTx/Crea,"[2]; male monkeys, day 13 of dosing",621 nME/mM and 547 nME/mM
same,Pyr/Crea,"[2]; male monkeys, day 13 of dosing",214 nM/mM and 204 nM/mM
same,CREAT,[2]; [11],16160 µmol/L and 16120 µmol/L
same,CTx,[2]; [11],11865 µg/L and 20108 µg/L
same,D-PYR,[2]; [11],1660 nmol/L and 2278 nmol/L
same,NTx,[2]; [11],5403 nM BCE and 8757 nM BCE
same,NTx/Crea,[2]; [11],334 nME/mM and 543 nME/mM
same,Pyr/Crea,[2]; [11],103 nM/mM and 141 nM/mM
same,CREAT,[2]; [12],16160 µmol/L and 9940 µmol/L
same,Ca2+,[2]; [12],5.10 mmol/L and 3.50 mmol/L
same,K+,[2]; [12],86 mmol/L and 125 mmol/L
same,LDH,[2]; [12],7.0 IU/L and 9.0 IU/L
B1,"Serum Insulin-Like Growth Factor Binding Protein 2, mean",[3]; 100 μg/day,893 ng/mL
same,"Serum Insulin-Like Growth Factor Binding Protein 2, conc","[3]; individual animals, 100 μg/day",987.6 ng/mL and 596.7 ng/mL and 749.5 ng/mL and 1239.8 ng/mL
same,Serum protein levels of circulating IGF2-binding protein,"[3]; treated animals, two weeks sc",decreased
